This passage reports inhibition and residual activity results from ChEMBL document CHEMBL5696442, “Discovery of type II inhibitors of TGFβ-activated kinase 1 (TAK1) and mitogen-activated protein kinase kinase kinase kinase 2 (MAP4K2)” (J Med Chem, 2015).

Experiment [1] addresses Cyclin-dependent kinase 2 (Homo sapiens) (UniProt P24941). Nature of the experiment: Inhibition of CDK2 Lys1 labeling site in human A-375 cells at 0.5 uM by KiNativ Profiling analysis relative to control. The format is cell-based.
Experiment [2] addresses Dual specificity tyrosine-phosphorylation-regulated kinase 1A (Homo sapiens) (UniProt Q13627). Nature of the experiment: Inhibition of DYRK1A (unknown origin) at 1 uM by Ambit Kinomescan binding assay relative to control; values are per cent of control.
Experiment [3] relates to Epidermal growth factor receptor (Homo sapiens), P00533 [UNDEFINED MUTATION]. Nature of the experiment: Inhibition of EGFR L747-E749del/A750P mutant (unknown origin) at 1 uM by Ambit Kinomescan binding assay relative to control.
Experiment [4] addresses Phosphatidylinositol 4-kinase alpha (Homo sapiens) (UniProt P42356). The experiment in a line: Inhibition of PIK4CA ATP labeling site in human Huh-7 cells at 1 uM by KiNativ Profiling analysis relative to control. The format is cell-based.
Experiment [5] has as its target Tyrosine-protein kinase Fes/Fps (Homo sapiens, UniProt P07332). The experiment in a line: Inhibition of FES K1 labeling site in human Huh-7 cells at 1 uM by KiNativ Profiling analysis relative to control. The format is cell-based.
The target in experiment [6] is Hepatocyte growth factor receptor (Homo sapiens) (UniProt P08581). Nature of the experiment: Inhibition of MET ACT labeling site in human A-375 cells at 0.5 uM by KiNativ Profiling analysis relative to control. The format is cell-based.
Experiment [7] concerns the target T1, Mitogen-activated protein kinase kinase kinase kinase 2 (Homo sapiens) (UniProt Q12851).
T1 sequence (whole entry): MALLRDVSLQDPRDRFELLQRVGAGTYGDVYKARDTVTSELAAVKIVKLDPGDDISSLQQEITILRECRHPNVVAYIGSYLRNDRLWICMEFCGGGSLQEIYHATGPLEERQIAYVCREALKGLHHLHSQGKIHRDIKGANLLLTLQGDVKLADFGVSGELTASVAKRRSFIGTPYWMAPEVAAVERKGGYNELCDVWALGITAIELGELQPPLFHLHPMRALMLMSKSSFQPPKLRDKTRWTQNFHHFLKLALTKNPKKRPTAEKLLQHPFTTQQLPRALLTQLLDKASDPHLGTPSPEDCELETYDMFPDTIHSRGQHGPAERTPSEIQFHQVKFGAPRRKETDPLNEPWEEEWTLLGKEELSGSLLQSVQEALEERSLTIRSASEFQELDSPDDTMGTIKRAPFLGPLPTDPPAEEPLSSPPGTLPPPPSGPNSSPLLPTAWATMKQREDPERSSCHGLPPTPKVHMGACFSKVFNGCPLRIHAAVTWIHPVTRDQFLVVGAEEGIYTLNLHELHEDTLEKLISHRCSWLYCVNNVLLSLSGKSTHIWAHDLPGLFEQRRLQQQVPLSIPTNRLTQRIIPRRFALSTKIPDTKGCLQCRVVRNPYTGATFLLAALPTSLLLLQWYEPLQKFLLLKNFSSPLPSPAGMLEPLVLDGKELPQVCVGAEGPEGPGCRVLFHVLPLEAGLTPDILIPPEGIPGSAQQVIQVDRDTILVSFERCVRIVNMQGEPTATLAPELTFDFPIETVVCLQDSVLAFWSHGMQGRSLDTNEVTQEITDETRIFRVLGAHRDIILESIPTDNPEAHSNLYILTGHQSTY
The experiment in a line: Inhibition of MAP4K2 Lys2 labeling site in human A-375 cells at 5 uM by KiNativ Profiling analysis relative to control. The format is cell-based.

Experiment [8] concerns the target Calcium/calmodulin-dependent protein kinase type IV (Homo sapiens) (UniProt Q16566). The experiment in a line: Inhibition of CAMK4 (unknown origin) at 10 uM by Ambit Kinomescan binding assay.
In experiment [9] the target is Cyclin-dependent kinase 13 (Homo sapiens) (UniProt Q14004). The experiment in a line: Inhibition of CHED K2 labeling site in human Huh-7 cells at 10 uM by KiNativ Profiling analysis relative to control. In kind it is cell-based.
In experiment [10] the target is TRAF2 and NCK-interacting protein kinase (Homo sapiens) (UniProt Q9UKE5). The experiment in a line: Inhibition of ZC2/TNIK Lys2 labeling site in human A-375 cells at 5 uM by KiNativ Profiling analysis relative to control. In kind it is cell-based.
For experiment [11], the target named is Serine/threonine-protein kinase 24 (Homo sapiens) (UniProt Q9Y6E0). The experiment in a line: Inhibition of MST3 K2 labeling site harbouring DIKAANVLLSEHGEVK in human Huh-7 cells at 1 uM by KiNativ Profiling analysis relative to control. In kind it is cell-based.
Experiment [12] concerns the target Tyrosine-protein kinase TXK (Homo sapiens) (UniProt P42681). Nature of the experiment: Inhibition of TXK (unknown origin) at 10 uM by Ambit Kinomescan binding assay relative to control; values are per cent of control.
The target of experiment [13] is T2, Dual specificity mitogen-activated protein kinase kinase 6 (Homo sapiens) (UniProt P52564).
T2 sequence (whole entry): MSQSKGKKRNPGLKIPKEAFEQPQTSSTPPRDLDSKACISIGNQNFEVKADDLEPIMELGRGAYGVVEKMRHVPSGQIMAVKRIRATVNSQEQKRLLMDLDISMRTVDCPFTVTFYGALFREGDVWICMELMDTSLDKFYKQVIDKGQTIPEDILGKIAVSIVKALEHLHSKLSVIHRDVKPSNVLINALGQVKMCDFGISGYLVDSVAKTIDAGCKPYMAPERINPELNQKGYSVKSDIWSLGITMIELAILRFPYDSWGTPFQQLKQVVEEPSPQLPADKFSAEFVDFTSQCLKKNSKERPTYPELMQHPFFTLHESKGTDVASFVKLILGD
Nature of the experiment: Inhibition of MAP2K6 K2 labeling site in human Huh-7 cells at 10 uM by KiNativ Profiling analysis relative to control. The format is cell-based.

Experiment [14] deals with Ribosomal protein S6 kinase alpha-3 (Homo sapiens) (UniProt P51812). The experiment in a line: Inhibition of RSK2 Domain 1 ACT labeling site harbouring LTDFGLSKESIDHEK in human Huh-7 cells at 10 uM by KiNativ Profiling analysis relative to control. In kind it is cell-based.
For experiment [15], the target named is Serine/threonine-protein kinase 10 (Homo sapiens) (UniProt O94804). The experiment in a line: Inhibition of LOK Lys2 labeling site harbouring DLKAGNVLMTLEGDIR in human Huh-7 cell lysate at 1 uM by KiNativ Profiling analysis relative to control. In kind it is subcellular.
Experiment [16] concerns the target Cyclin-dependent kinase 13 (Homo sapiens) (UniProt Q14004). Nature of the experiment: Inhibition of CHED Lys2 labeling site harbouring DIKCSNILLNNR in human Huh-7 cells at 1 uM by KiNativ Profiling analysis relative to control. The format is cell-based.
In experiment [17] the target is Casein kinase I isoform epsilon (Homo sapiens) (UniProt P49674). The experiment in a line: Inhibition of CK1e Lys2 labeling site in human Huh-7 cells at 1 uM by KiNativ Profiling analysis relative to control. The format is cell-based.
The target in experiment [18] is Serine/threonine-protein kinase 4 (Homo sapiens) (UniProt Q13043). Nature of the experiment: Inhibition of MST1 Lys2 labeling site harbouring IHRDIKAGNILLNTEGHAK in human Huh-7 cells at 1 uM by KiNativ Profiling analysis relative to control.
The target in experiment [19] is Serine/threonine-protein kinase Nek7 (Homo sapiens) (UniProt Q8TDX7). Nature of the experiment: Inhibition of NEK7 Lys2 labeling site harbouring VMHRDIKPANVFITATGVVK in human Huh-7 cells at 1 uM by KiNativ Profiling analysis relative to control. In kind it is cell-based.

Each structure is given as a SMILES string. Active and inactive are the calls of the source. The rule behind the calls is not given here.

Cyclin-dependent kinase 13 (Homo sapiens), sequence (Q14004 whole entry, looked up, canonical isoform): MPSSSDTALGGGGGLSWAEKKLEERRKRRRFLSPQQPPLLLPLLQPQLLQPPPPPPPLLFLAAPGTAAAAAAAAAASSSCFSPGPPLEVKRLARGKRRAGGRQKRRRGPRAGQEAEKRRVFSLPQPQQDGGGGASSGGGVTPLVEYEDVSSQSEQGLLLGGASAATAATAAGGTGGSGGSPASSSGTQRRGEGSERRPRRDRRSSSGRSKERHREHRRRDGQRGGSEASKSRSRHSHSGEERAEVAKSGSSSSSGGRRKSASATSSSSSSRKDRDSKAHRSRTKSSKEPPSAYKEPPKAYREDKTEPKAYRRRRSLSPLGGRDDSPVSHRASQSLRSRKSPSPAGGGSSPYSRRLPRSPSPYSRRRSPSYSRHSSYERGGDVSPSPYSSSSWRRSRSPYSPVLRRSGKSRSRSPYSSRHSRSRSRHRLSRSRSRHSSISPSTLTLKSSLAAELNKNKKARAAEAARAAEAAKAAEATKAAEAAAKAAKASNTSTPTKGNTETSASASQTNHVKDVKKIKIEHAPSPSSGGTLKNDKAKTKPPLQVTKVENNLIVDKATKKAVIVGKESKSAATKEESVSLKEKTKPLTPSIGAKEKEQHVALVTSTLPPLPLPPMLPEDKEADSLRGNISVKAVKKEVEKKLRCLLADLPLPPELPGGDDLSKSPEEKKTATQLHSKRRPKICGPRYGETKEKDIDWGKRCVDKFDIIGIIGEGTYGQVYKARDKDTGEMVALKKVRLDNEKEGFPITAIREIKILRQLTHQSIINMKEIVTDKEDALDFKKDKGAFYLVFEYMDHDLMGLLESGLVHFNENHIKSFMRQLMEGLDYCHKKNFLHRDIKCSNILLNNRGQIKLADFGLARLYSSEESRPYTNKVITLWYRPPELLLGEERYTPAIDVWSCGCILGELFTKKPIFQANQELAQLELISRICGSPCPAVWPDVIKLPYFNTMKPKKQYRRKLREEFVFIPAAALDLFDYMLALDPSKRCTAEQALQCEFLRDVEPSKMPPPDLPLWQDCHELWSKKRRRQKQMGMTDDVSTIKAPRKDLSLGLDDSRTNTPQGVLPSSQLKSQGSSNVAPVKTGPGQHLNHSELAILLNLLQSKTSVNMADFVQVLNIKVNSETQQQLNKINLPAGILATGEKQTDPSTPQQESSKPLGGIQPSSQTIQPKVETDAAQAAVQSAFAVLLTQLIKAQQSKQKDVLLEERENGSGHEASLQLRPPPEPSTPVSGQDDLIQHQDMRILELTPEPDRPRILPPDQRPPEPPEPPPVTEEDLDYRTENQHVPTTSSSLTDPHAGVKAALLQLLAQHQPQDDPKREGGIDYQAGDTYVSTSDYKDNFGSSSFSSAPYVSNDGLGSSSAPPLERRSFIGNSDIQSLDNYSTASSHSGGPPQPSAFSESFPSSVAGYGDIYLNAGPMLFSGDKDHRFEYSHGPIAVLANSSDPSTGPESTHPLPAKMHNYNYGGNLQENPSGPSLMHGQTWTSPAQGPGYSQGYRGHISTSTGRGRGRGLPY
Epidermal growth factor receptor (Homo sapiens), P00533 [UNDEFINED MUTATION], sequence (P00533 whole entry, looked up, stated change not applied): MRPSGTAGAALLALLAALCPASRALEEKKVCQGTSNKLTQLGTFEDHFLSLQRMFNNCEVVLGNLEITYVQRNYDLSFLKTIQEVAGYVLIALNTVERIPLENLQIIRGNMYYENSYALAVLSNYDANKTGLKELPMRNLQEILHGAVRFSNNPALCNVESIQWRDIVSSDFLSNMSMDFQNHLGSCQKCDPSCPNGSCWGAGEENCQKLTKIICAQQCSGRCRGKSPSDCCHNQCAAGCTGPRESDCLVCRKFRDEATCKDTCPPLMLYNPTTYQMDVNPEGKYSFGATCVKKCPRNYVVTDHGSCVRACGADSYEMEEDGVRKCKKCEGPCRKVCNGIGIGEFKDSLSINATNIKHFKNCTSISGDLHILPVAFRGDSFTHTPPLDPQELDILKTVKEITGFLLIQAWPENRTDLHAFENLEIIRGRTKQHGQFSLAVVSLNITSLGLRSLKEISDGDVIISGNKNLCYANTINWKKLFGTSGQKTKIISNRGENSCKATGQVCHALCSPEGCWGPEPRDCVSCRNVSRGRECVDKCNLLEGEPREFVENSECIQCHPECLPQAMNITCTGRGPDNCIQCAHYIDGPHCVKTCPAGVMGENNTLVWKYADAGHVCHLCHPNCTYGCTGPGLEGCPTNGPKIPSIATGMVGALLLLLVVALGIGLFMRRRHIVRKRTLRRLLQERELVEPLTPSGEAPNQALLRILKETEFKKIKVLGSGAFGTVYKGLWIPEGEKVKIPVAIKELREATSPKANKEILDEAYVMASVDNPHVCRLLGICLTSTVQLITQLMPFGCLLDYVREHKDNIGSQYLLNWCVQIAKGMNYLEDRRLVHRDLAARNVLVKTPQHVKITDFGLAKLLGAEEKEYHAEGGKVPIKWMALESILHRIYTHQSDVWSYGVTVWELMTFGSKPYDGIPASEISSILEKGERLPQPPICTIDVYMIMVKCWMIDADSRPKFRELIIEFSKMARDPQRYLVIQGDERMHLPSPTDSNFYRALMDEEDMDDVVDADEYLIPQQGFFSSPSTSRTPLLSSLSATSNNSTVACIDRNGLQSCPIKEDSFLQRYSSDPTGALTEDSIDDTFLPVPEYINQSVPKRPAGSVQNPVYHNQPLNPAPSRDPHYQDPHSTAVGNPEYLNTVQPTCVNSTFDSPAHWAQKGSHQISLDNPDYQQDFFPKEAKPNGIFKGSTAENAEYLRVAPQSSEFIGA
Tyrosine-protein kinase TXK (Homo sapiens), sequence (P42681 whole entry): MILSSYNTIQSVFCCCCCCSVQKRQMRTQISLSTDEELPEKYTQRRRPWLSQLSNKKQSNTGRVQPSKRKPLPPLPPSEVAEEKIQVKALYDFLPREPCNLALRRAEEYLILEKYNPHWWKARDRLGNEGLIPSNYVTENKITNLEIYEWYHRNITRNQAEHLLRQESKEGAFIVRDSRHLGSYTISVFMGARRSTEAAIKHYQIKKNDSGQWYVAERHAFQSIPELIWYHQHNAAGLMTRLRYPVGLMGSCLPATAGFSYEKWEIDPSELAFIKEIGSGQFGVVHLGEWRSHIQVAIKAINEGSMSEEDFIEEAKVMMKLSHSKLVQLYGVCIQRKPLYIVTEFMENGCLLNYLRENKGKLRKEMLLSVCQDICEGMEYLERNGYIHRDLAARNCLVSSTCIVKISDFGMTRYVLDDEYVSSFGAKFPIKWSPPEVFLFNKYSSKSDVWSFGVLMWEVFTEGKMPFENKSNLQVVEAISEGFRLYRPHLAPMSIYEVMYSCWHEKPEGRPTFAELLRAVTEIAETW
Casein kinase I isoform epsilon (Homo sapiens), sequence (P49674 whole entry, looked up, canonical isoform): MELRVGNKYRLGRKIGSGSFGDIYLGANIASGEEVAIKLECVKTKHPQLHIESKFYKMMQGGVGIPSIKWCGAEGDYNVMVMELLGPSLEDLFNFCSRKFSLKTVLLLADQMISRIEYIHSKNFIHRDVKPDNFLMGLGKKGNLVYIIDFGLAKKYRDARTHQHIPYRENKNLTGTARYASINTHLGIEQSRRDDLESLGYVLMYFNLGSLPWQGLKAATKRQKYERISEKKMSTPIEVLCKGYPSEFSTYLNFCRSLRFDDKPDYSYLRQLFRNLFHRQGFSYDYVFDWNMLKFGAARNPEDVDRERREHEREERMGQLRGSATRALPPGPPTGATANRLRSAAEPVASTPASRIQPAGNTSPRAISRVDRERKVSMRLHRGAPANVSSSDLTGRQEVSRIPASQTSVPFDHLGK
Calcium/calmodulin-dependent protein kinase type IV (Homo sapiens), sequence (Q16566 whole entry): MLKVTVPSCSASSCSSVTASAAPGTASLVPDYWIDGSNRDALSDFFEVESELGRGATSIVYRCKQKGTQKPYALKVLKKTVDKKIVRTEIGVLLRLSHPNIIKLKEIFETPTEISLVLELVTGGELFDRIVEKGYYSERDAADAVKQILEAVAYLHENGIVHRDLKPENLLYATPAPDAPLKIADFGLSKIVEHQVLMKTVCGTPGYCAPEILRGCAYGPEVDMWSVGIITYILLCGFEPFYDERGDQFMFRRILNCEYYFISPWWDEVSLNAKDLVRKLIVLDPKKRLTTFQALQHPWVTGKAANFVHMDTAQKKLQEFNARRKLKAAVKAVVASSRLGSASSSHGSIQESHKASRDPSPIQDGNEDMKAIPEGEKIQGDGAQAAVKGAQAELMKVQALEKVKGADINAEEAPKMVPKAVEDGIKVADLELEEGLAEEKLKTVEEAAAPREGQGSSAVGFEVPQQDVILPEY
Tyrosine-protein kinase Fes/Fps, sequence (P07332 whole entry): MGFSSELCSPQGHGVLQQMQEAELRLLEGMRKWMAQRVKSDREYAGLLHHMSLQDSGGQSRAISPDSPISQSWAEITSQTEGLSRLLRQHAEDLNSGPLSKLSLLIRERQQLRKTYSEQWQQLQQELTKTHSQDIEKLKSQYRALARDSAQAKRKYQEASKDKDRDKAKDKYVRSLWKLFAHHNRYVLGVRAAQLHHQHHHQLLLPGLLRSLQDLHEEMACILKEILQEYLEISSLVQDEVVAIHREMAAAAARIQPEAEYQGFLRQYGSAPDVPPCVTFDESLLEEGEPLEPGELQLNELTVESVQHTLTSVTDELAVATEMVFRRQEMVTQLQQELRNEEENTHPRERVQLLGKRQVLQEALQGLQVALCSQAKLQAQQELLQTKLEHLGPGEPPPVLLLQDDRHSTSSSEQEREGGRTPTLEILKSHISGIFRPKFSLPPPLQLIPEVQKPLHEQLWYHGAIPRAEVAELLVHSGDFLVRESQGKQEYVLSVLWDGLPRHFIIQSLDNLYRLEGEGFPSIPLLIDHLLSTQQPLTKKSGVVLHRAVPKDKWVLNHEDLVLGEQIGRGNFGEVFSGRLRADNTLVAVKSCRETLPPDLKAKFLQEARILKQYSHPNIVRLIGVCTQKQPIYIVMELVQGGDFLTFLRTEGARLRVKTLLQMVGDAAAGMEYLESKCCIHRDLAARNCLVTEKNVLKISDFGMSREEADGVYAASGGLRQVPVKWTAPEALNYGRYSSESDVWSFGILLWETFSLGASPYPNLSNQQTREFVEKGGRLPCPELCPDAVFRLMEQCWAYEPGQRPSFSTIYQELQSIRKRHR

What is called inhibition is the change of the read-out against control, counted positive when it falls. For orientation: residual activity means what remains of the control signal, in per cent. A lower residual activity goes with little activity left. On to `CCN1CCN(Cc2ccc(NC(=O)c3ccc(C)c(/C=C/c4cnc5[nH]ccc5c4OC)c3)cc2C(F)(F)F)CC1`, for which the inhibition in experiment [1] was 20.7%; in [3], 3%. This compound also registered a residual activity in experiment [2] of 100%.

With `CCN1CCN(Cc2ccc(NC(=O)c3ccc(C)c(Oc4ccnc5[nH]ccc45)c3)cc2C(F)(F)F)CC1`, the inhibition was 3.5% in experiment [4]; -4.5% in [5]; 14.4% in experiment [6]; 94% in [7]; 92.7% in experiment [10]; -7.8% in [11]. In addition, the figures for the inhibition in [13] and in experiment [14] were 19.3% and -1.5%, respectively. In addition, the inhibition result in experiment [8] and in [9] was “inactive” in each case. Also, the residual activity in experiment [12] is 12%.

Take `CNc1cc(Oc2cc(C(=O)Nc3cc(N4CCN(C)CC4)cc(C(F)(F)F)c3)ccc2C)ncn1`: the inhibition is -8.9% in experiment [15]; 38.1% in experiment [16]; 39.1% in experiment [17]; -0.8% in experiment [18]; 6.9% in experiment [19].
